Patent US6855843B2, “Inhibitors of α4 mediated cell adhesion” (Tanabe Seiyaku Co., Ltd., priority 1998, dated 2005)

Columns and labels:
[1] = biological target: T1, α4β7 (adhesion of RPMI cells to CS-1) (Homo sapiens, UniProt P13612+P26010); assay: RPMI-CS-1 cell adhesion assay; type: cell-based; settings: adhesion of RPMI B-cell line (expresses α4β7) to CS-1 peptide coated microwells; read-out: RPMI-CS-1 IC50 value range
T1 construct: endogenous in cells
T1 sequence (P13612 34-1032): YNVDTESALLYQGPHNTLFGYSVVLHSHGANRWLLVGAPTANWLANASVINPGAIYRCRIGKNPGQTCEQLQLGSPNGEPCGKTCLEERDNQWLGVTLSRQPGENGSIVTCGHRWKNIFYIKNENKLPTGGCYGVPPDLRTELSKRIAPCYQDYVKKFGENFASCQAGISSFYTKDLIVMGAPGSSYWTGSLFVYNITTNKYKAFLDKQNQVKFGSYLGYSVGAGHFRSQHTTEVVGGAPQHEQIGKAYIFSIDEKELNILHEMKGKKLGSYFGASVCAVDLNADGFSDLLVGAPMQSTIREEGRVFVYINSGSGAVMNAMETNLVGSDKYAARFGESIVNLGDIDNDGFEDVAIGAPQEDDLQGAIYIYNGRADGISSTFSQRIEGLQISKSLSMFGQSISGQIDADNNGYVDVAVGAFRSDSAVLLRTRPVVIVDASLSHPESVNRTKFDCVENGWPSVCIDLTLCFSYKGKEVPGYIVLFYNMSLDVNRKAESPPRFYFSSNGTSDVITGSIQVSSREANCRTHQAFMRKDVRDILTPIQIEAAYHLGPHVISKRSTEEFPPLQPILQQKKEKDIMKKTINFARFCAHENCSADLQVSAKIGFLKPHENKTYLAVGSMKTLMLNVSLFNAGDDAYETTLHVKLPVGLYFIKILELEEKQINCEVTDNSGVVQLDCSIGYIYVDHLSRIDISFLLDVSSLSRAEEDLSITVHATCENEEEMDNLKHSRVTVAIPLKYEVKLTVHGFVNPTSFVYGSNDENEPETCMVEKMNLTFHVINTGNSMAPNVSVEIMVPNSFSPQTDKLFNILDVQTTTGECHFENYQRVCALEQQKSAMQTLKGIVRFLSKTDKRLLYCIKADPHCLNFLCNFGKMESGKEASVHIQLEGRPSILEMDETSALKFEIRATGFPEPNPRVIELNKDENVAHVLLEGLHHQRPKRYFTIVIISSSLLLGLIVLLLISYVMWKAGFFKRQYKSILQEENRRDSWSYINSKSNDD
T1 sequence (P26010 20-798): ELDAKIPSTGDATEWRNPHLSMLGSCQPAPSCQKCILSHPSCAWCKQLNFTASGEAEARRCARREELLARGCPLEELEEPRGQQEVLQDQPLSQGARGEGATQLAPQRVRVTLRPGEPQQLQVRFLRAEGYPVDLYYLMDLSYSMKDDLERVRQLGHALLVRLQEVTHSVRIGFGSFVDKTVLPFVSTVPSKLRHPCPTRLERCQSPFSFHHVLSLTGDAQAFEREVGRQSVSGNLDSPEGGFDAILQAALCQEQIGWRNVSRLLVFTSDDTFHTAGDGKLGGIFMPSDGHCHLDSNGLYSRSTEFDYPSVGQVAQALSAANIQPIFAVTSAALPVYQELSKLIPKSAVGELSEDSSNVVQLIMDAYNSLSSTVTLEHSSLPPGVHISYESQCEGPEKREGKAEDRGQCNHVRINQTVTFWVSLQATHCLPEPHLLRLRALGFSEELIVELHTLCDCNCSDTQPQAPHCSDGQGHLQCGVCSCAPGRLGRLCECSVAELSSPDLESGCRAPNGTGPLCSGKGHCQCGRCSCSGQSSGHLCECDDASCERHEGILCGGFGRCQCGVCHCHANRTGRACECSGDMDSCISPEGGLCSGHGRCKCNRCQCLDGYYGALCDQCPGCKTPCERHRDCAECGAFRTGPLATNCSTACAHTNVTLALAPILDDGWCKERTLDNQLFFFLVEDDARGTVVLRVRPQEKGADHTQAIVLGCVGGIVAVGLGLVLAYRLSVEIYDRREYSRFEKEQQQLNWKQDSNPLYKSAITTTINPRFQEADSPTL

IC50 [1] [nM] | melting point | SMILES
< 300 | 194 to 195 °C | COc1cc(NC(=O)Nc2ccccc2C)cc(OC)c1-c1ccc(C[C@H](NC(=O)c2c(Cl)cccc2Cl)C(=O)O)cc1 [Example 161, N-(2,6-Dichlorobenzoyl)-4-[4-[3-(2-methylphenyl)ureido]-2,6-dimethoxyphenyl]-L-phenylalanine]
< 300 | 197 to 198 °C | CNC(=S)Nc1cc(OC)c(-c2ccc(C[C@H](NC(=O)c3c(Cl)cccc3Cl)C(=O)O)cc2)c(OC)c1 [Example 162, N-(2,6-Dichlorobenzoyl)-4-[2,6-dimethoxy-4-(3-methylthioureido)phenyl]-L-phenylalanine]
< 300 | 154 to 155 °C | COc1cc(NS(C)(=O)=O)cc(OC)c1-c1ccc(C[C@H](NC(=O)c2c(Cl)cccc2Cl)C(=O)O)cc1 [Example 163, N-(2,6-Dichlorobenzoyl)-4-[2,6-dimethoxy-4-[(methylsulfonyl)amino]phenyl]-L-phenylalanine]
< 300 | 251 to 252 °C | CNC(=O)c1cc(OC)c(-c2ccc(C[C@H](NC(=O)c3c(Cl)cccc3Cl)C(=O)O)cc2)c(OC)c1 [Example 165, N-(2,6-Dichlorobenzoyl)-4-(4-methylcarbamoyl-2,6-dimethoxyphenyl)-L-phenylalanine]
< 300 | 219 to 221 °C | COc1cc(C(=O)N(C)C)cc(OC)c1-c1ccc(C[C@H](NC(=O)c2c(Cl)cccc2Cl)C(=O)O)cc1 [Example 166]
< 300 | 153 to 154 °C | COc1cc(C(=O)NCc2ccccc2)cc(OC)c1-c1ccc(C[C@H](NC(=O)c2c(Cl)cccc2Cl)C(=O)O)cc1 [Example 167]
< 300 | 261 to 262 °C | COc1cc(C(=O)NC(C)C)cc(OC)c1-c1ccc(C[C@H](NC(=O)c2c(Cl)cccc2Cl)C(=O)O)cc1 [Example 168]
< 300 | 222 to 223 °C | COc1cc(C(=O)NCCCO)cc(OC)c1-c1ccc(C[C@H](NC(=O)c2c(Cl)cccc2Cl)C(=O)O)cc1 [Example 169]
< 300 | 268 to 269 °C | COc1cc(C(=O)NCCN2CCOCC2)cc(OC)c1-c1ccc(C[C@H](NC(=O)c2c(Cl)cccc2Cl)C(=O)O)cc1 [Example 171]
< 300 | 277 to 278 °C | COc1cc(C(=O)O)cc(OC)c1-c1ccc(C[C@H](NC(=O)c2c(Cl)cccc2Cl)C(=O)O)cc1 [Example 172, N-(2,6-Dichlorobenzoyl)-4-(4-carboxy-2,6-dimethoxyphenyl)-L-phenylalanine]
< 300 | 277 to 278 °C | COc1cc(C(=O)NS(C)(=O)=O)cc(OC)c1-c1ccc(C[C@H](NC(=O)c2c(Cl)cccc2Cl)C(=O)O)cc1 [Example 173, N-(2,6-Dichlorobenzoyl)-4-[4-(methanesulfonylamino)carbonyl-2,6-dimethoxyphenyl]-L-phenylalanine]
< 300 | 156 to 157 °C | COCOc1ccc(OC)c(-c2ccc(C[C@H](NC(=O)c3c(Cl)cccc3Cl)C(=O)O)cc2)c1OC [Example 174, N-(2,6-Dichlorobenzoyl)-4-(2,6-dimethoxy-3-methoxymethoxyphenyl)-L-phenylalanine]
< 300 | 164 to 165 °C | COc1ccc(O)c(OC)c1-c1ccc(C[C@H](NC(=O)c2c(Cl)cccc2Cl)C(=O)O)cc1 [Example 175, N-(2,6-Dichlorobenzoyl)-4-(2,6-dimethoxy-3-hydroxyphenyl)-L-phenylalanine]
< 300 | 141 to 142 °C | COc1cccc(OC)c1-c1ccc(C[C@H](NC(=O)c2c(Cl)cc(NS(=O)(=O)c3cccs3)cc2Cl)C(=O)O)cc1 [Example 193, N-[2,6-Dichloro-4-[(2-thienylsulfonyl)amino]benzoyl]-4-(2,6-dimethoxyphenyl)-L-phenylalanine]
< 300 | 155 to 156 °C | CCNC(=S)Nc1ccc(C(=O)N[C@@H](Cc2ccc(-c3ccccc3OC)cc2)C(=O)O)c(Cl)c1 [Example 196]
300 to 1000 | 145 to 146 °C | COc1ccccc1-c1ccc(C[C@H](NC(=O)c2ccc(NC(=S)Nc3ccccc3)cc2Cl)C(=O)O)cc1 [Example 197]
< 300 | 227 to 229 °C | COc1cccc(OC)c1-c1ccc(C[C@H](NC(=O)c2c(Cl)cc(NC(C)=O)cc2Cl)C(=O)O)cc1 [Example 199]
< 300 | 185 to 187 °C | CCOC(=O)Nc1cc(Cl)c(C(=O)N[C@@H](Cc2ccc(-c3c(OC)cccc3OC)cc2)C(=O)O)c(Cl)c1 [Example 200]
< 300 | 147 to 149 °C | COC(=O)Nc1cc(Cl)c(C(=O)N[C@@H](Cc2ccc(-c3c(OC)cccc3OC)cc2)C(=O)O)c(Cl)c1 [Example 201]
< 300 | 182 to 184 °C | COc1cccc(OC)c1-c1ccc(C[C@H](NC(=O)c2c(Cl)cc(NC(=O)Nc3ccccc3C)cc2Cl)C(=O)O)cc1 [Example 202]
< 300 | 110 to 112 °C | CNC(=O)Nc1cc(Cl)c(C(=O)N[C@@H](Cc2ccc(-c3c(OC)cccc3OC)cc2)C(=O)O)c(Cl)c1 [Example 203]
< 300 | 220 to 221 °C | COc1cccc(OC)c1-c1ccc(C[C@H](NC(=O)c2c(Cl)cc(NC(N)=O)cc2Cl)C(=O)O)cc1 [Example 204]
< 300 | 217 to 219 °C | COc1ccc(C(N)=O)c(OC)c1-c1ccc(C[C@H](NC(=O)c2c(Cl)cc(NC(N)=O)cc2Cl)C(=O)O)cc1 [Example 205, N-(4-Ureido-2,6-dichlorobenzoyl)-4-(3-carbamoyl-2,6-dimethoxyphenyl)-L-phenylalanine]
< 300 | 221 to 222 °C (dec.) | COc1cccc(OC)c1-c1ccc(C[C@H](NC(=O)c2c(Cl)cc(N)cc2Cl)C(=O)O)cc1 [Example 206, N-(4-Amino-2,6-dichlorobenzoyl)-4-(2,6-dimethoxyphenyl)-L-phenylalanine]
< 300 | 184 to 185 °C | COc1cccc(OC)c1-c1ccc(C[C@H](NC(=O)c2c(Cl)cc(Br)cc2Cl)C(=O)O)cc1 [Example 207]
< 300 | 252 to 253 °C | COc1cccc(OC)c1-c1ccc(C[C@H](NC(=O)c2c(Cl)cc(O)cc2Cl)C(=O)O)cc1 [Example 208]
1000 to 5000 | 62 to 63 °C | COc1ccccc1-c1ccc(C[C@H](NC(=O)c2ccc(Br)cc2Cl)C(=O)O)cc1 [Example 212]
1000 to 5000 | 109 to 110 °C | COc1ccccc1-c1ccc(C[C@H](NC(=O)C(C)c2c(Cl)cccc2Cl)C(=O)O)cc1 (stereo partly drawn) [Example 213, N-[2-(2,6-Dichlorophenyl)propionyl]-4-(2-methoxyphenyl)-L-phenylalanine]
300 to 1000 | 194 to 195 °C | CC(=O)c1ccc(-c2ccc(C[C@H](NC(=O)c3c(Cl)cccc3Cl)C(=O)O)cc2)s1 [Example 215, N-(2,6-Dichlorobenzoyl)-4-(5-acetyl-2-thienyl)-L-phenylalanine]
< 300 | 158 to 159 °C | COc1cccc(OCCO)c1-c1ccc(C[C@H](NC(=O)c2c(Cl)cccc2Cl)C(=O)O)cc1 [Example 227, N-(2,6-Dichlorobenzoyl)-4-[6-methoxy-2-(2-hydroxyethoxy)phenyl]-L-phenylalanine]
